Measurements from US6716872B2, “Substituted pyrrolidine-2,3,4-trione 3-oxime derivatives which are active as NMDA receptor antagonists” (Gruenenthal GmbH, priority 1999, dated 2004).

Tests used:
[1] = target: T1, glycine binding site of the NMDA receptor channel (Rattus norvegicus, UniProt P35439); assay: Receptor binding test, displacement of (3H)-MDL 105.519 on rat cerebral membrane homogenates; conditions: rat cortex and hippocampus membranes, 1 nmol/l (3H)-MDL 105.519; Ki from IC50 by Cheng-Prusoff
T1 construct: from tissue; host or cells: rat brain cortex and hippocampus membrane homogenate (male Wistar rats, Charles River)
Experimental: Studies for determination of the affinity of the substituted pyrrolidine-2,3,4-trione 3-oxime derivatives of the general formula I according to the invention for the glycine binding site of the NMDA receptor channel were carried out on cerebral membrane homogenates (homogenate of the cortex and hippocampus area from the brain of male rats, Wistar strain, Charles River, WIGA GmbH, Sulzbach, Germany) by the method of Baron B. M. et al, J. Pharmacol. Exp. Ther., vol. 279, pp.62-68 (1996). […]
In the binding test, 50 mmol/l TRIS-acetate buffer pH 7.0 was employed as the buffer and 1 nmol/l (^3H)-MDL 105.519 (Baron B. M. et al, J. Pharmacol. Exp. Ther., vol. 279, pp. 62-68 (1996)) was employed as the radioactive ligand. The proportion of non-specific binding was determined in the presence of 1 mmol/l glycine.
In further batches, the compounds according to the invention were added in concentration series and the displacement of the radioactive ligand from its specific binding to the glycine binding site of the NMDA receptor channel was determined. […]

male albino mice (NMRI) = assay: Formalin test in mice, second (late) phase; type: in vivo; conditions: second (late) phase of formalin test
Experimental: The studies for determination of the antinociceptive action of the compounds according to the invention were carried out in the formalin test in male albino mice (NMRI, 25-35 g, Iffa Credo, Belgium).
The compounds according to the invention were investigated in the second phase of the formalin test to obtain information on the actions of the compounds according to the invention on chronic/inflammatory pain.
By a single subcutaneous formalin injection (20 μl, 1% aqueous solution) into the dorsal side of the right hind paw of freely mobile test animals, a nociceptive reaction was induced, which manifests itself in significant licking and biting of the paw affected.
For the investigation period in the second (late) phase of the formalin test, the nociceptive behavior was recorded continuously by observing the animals. […] After injection of substances which have an antinociceptive action in the formalin test, the modes of behaviour described for the animals are reduced, and possibly even eliminated. […] The behaviour of the rats after administration of the substance was compared with a control group (10 mice per substance dose).
On the basis of the quantification of the pain properties, the action of the substance in the formalin test was determined as a change from the control in per cent. The ED50 calculations were made by means of regression analysis. […]

male NMRI mice = assay: Phenylquinone-induced writhing test in the mouse; type: in vivo
Experimental: The study of the analgesic activity was also carried out in the phenylquinone-induced writhing in the mouse (modified by I. C. Hendershot et al, (1959) J. Pharmacol. Exp. Ther., vol. 125, pp. 237-240). Male NMRI mice weighing 25 to 30 g (Iffa, Credo, Belgium, were used for this. Groups of 10 animals per substance dose received 0.3 ml/mouse of a 0.02% aqueous solution of phenylquinone (phenylbenzoquinone, Sigma, Deisenhofen; preparation of the solution with the addition of 5% ethanol and storage in a water bath at 45° C.) administered intraperitoneally 10 minutes after intravenous administration of the particular compound. The animals were placed individually in observation cages. The number of pain-induced stretching movements (so-called writhing reactions=straightening of the body with stretching of the hind extremities) was counted by means of a push-button counter for 5 to 20 minutes after the administration of phenylquinone. Animals which received only physiological saline solution were also run as a control. All the substances were tested in the standard dosage of 10 mg/kg of body weight of the mouse. The percentage inhibition (% inhibition) of the writhing reaction by a substance was calculated according to the following equation: [formula]
For some of the compounds according to the invention the ED50 values with the 95% confidence range of the writhing reaction were calculated by means of regression analysis (evaluation program from Martens EDV Service, Eckental) from the dose-dependent decrease in the writhing reactions compared with phenylquinone control groups investigated in parallel.
The study of the analgesic activity was carried out in the phenylquinone-induced writhing in mice as described above.

melting point [°C] | Ki [1] [nM] | Structure (SMILES) | % change from the control at 10 mg/kg (male albino mice (NMRI)) [%] | % inhibition of the writhing reaction at 10 mg/kg intravenously (male NMRI mice) [%]
176 | – | O=C1NC(=Cc2ccccc2Cl)C(=O)C1=NO [Example 4, 5-(2-Chlorobenzylidene)-pyrrolidine-2,3,4-trione 3-oxime] | – | 55
180 | – | O=C1NC(=Cc2ccc(Cl)cc2Cl)C(=O)C1=NO [Example 7, 5-(2,4-Dichlorobenzylidene)-pyrrolidine-2,3,4-trione 3-oxime] | – | 46
232 | – | O=C1NC(=Cc2c(Cl)cccc2Cl)C(=O)C1=NO [Example 8, 5-(2,6-Dichlorobenzylidene)-pyrrolidine-2,3,4-trione 3-oxime] | – | 51
185 | – | O=C1NC(=Cc2cccc(Cl)c2)C(=O)C1=NO [Example 9, 5-(3-Chlorobenzylidene)-pyrrolidine-2,3,4-trione 3-oxime] | – | 81

More lines, now with the values behind:

Structure (SMILES) | melting point [°C] | Ki [1] [nM] | % change from the control at 10 mg/kg (male albino mice (NMRI)) [%] | % inhibition of the writhing reaction at 10 mg/kg intravenously (male NMRI mice) [%]
COC(=C1NC(=O)C(=NO)C1=O)c1ccccc1 [Example 1, 5-(Methoxyphenylmethylene)-pyrrolidine-2,3,4-trione 3-oxime] | 174 | – | – | –
O=C1NC(=C(Br)c2ccccc2)C(=O)C1=NO [Example 2, 5-(Bromophenylmethylene)-pyrrolidine-2,3,4-trione 3-oxime] | 158 | 430 | 36.3 | –
O=C1NC(=Cc2ccc(Cl)cc2)C(=O)C1=NO [Example 5, 5-(4-Chlorobenzylidene)-pyrrolidine-2,3,4-trione 3-oxime] | 190 | – | – | 50
O=C1NC(=Cc2cccc(Cl)c2Cl)C(=O)C1=NO [Example 6, 5-(2,3-Dichlorobenzylidene)-pyrrolidine-2,3,4-trione 3-oxime] | – | – | – | 52
